Assay results: PMC7690921, “Synthesis and Biological Evaluation of Analogues of Butyrolactone I as PTP1B Inhibitors” (Marine Drugs, 2020)

Tests used:
RIN-m5f cell line = test: Cell proliferation assay (CCK-8), RIN-m5f; format: cell-based; conditions: CCK-8, 48 h
Procedure: The cytotoxic effect of the synthesized butenolides on RIN-m5f (CRL-11605, American Type Culture Collection, Manassas, VA, USA) and HepG2 cells was determined with a Cell Counting Kit 8 (CCK-8) kit (Dojindo, Tokyo, Japan). Cells were seeded into 96-well plates in DMEM with 10% FBS in a volume of 100 µL per well and cultured overnight at 37 °C. The density of the cells in each plate was 1 × 10^4 cells/mL. According to the manufacturer’s protocol, after treatment with DMSO or varying concentrations of BLs for 48 h, 10 µL of CCK-8 solution was added to each well and cells were incubated for 2 h at 37 °C. Measure the absorbance at 450 nm of each well on a SpectraMax 340 microplate reader.

IR HepG2 cells = test: Glucose consumed in insulin resistance model of HepG2 cells; format: cell-based; conditions: high glucose and high insulin stimulated HepG2; 24 h treatment
Procedure: HepG2 cells (Cell Bank of Chinese Academy of Sciences, Shanghai, China) were seeded in 96-well plates in normal Dulbecco’s Modified Eagle’ Medium (DMEM, 5.6 mM glucose) supplemented with 10% fetal bovine serum (FBS). The density of the cells in each plate was 1 × 10^4 cells/mL. The original medium was removed when the cells became adherent. For the control group, the medium was replaced with […]. The model of insulin resistance was established by stimulation with high glucose DMEM (30 mM glucose) with 10^−7 mol/L insulin for 48 h. Then, the cells were treated with drug-free or drug-containing DMEM (5.6 mM glucose) containing 0.2% BSA and […] 1 × 10^−9 mol/L insulin for 24 h. Glucose consumption was detected with the glucose oxidase method using a glucose assay kit (Cat#BC2500, Solarbio, Beijing, China).

PTP1B = target: T1, PTP1B (Homo sapiens, UniProt P18031); test: PTP1B inhibitory assay (pNPP substrate); format: biochemical; conditions: for IC50: pNPP 1 mM, 37 °C, Mean ± SD (n = 4), read-out: IC50 against PTP1B
T1 sequence (P18031 1-435): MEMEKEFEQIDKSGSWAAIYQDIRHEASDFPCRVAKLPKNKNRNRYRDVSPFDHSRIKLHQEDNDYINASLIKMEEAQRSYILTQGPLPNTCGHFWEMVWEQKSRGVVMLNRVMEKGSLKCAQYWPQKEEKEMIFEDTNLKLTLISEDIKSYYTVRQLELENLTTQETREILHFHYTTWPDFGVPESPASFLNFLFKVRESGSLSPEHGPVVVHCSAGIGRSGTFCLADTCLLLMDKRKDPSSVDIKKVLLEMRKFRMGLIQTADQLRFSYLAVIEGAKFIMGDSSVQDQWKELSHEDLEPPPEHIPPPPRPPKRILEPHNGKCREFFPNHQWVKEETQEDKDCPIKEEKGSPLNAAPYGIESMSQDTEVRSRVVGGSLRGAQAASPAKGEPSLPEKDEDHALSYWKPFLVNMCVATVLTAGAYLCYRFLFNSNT
Procedure: The tested compounds at designated concentrations were solubilized in DMSO, and 2 μL samples was added to 96-well clear polystyrene plate. […] Then, 78 μL of an assay buffer (25 mM Hepes, 150 mM sodium chloride (NaCl), 0.1% bovine serum albumin (BSA), 3 mM dithiothreitol, 1 mM ethylenediaminetetraacetic acid) and 10 μL of the PTP1B (10 μg/mL) was added and incubated for 10 min at 37 °C. The screening was initiated by adding 10 μL p-nitrophenyl phosphate (pNPP), and the catalysis of pNPP (1 mM) was continuously monitored on SpectraMax 340 microplate reader (Molecular Devices, Sunnyvale, CA, USA) at 405 nm for 20 min at 37 °C. The slope of the linear portion of the kinetic curve generated from each well was used to determine the activity of PTP1B. The inhibition effect of the compound was represented by the percentage of the slope of the linear portion of its kinetic curve relative to that of the negative control (DMSO). The IC50 was calculated with Prism 8 software (Graphpad, San Diego, CA, USA) from the non-linear curve fitting of the percentage of inhibition (%inhibition) versus the inhibitor concentration [I] by using the following equation: %Inhibition = 100/(1 + [IC50/[I]] ^k), where k is the Hill coefficient.

α-glucosidase = target: α-glucosidase; set-up: method as in earlier work; conditions: cited from earlier work
[1] = set-up: method as in doi:10.1007/s00044-013-0659-4; conditions: read-out: IC50 antioxidant activities; cited from earlier work

| PTP1B inhibitory activity (in words) (PTP1B) | IC50 (PTP1B) [µM] | SMILES | cytotoxicity to RIN-m5f cell line (proliferation) (RIN-m5f cell line) | hypoglycemic effect (glucose consumed / glucose uptake) in IR HepG2 cells (IR HepG2 cells) | IC50 (α-glucosidase) [µM] | IC50 [1] [µM] |
| --- | --- | --- | --- | --- | --- | --- |
| strong PTP1B inhibitory activity |  | O=C1OC(Cc2ccc(OCc3ccccc3)cc2)C(c2ccc(O)cc2)=C1O (stereo not drawn) [BL-5] | did not affect the proliferation | significant hypoglycemic effect |  |  |
| strong PTP1B inhibitory activity | 17.2 | CC(C)=CCc1cc(CC2OC(=O)C(O)=C2c2ccc(O)cc2)ccc1OCc1ccccc1 (stereo not drawn) [BL-6] | significant cytotoxicity | did not improve the glucose uptake |  |  |
| strong PTP1B inhibitory activity | 28.5 | COC(=O)C1(c2ccc(OCc3ccccc3)cc2)OC(=O)C(O)=C1c1ccc(O)cc1 (stereo not drawn) [BL-4] |  |  |  |  |

Further lines, the compound ahead of its results:

| SMILES | PTP1B inhibitory activity (in words) (PTP1B) | IC50 (PTP1B) [µM] | cytotoxicity to RIN-m5f cell line (proliferation) (RIN-m5f cell line) | hypoglycemic effect (glucose consumed / glucose uptake) in IR HepG2 cells (IR HepG2 cells) | IC50 (α-glucosidase) [µM] | IC50 [1] [µM] |
| --- | --- | --- | --- | --- | --- | --- |
| CC(C)=CCc1cc(C2OC(=O)C(O)=C2c2ccc(O)cc2)ccc1O (stereo not drawn) [BL-2] |  | 133 |  |  |  |  |
| COC(=O)[C@]1(Cc2ccc(O)c(CC=C(C)C)c2)OC(=O)C(O)=C1c1ccc(O)cc1 [Butyrolactone I] |  |  |  |  | 52.2 | 51.4 |
| CC(C)=CCc1cc(C2OC(=O)C(O)=C2c2ccc(O)cc2)ccc1OCc1ccccc1 (stereo not drawn) [BL-3] | strong PTP1B inhibitory activity |  | did not affect the proliferation | significant hypoglycemic effect |  |  |
